Source: article PMC12040169 (PLOS Biology, 2025)

Assay: in vitro
Settings: human, hela cells, % viability

| Structure (SMILES) | viability at 28.5 h, 10 µM |
| --- | --- |
| Cn1ccnc1CN1C[C@@H]2CCCN2C[C@@H]1Cc1ccccc1 [CBK283202] | 91.1% |
| CN(CCc1ccccc1)Cc1nc2ccccc2c(=O)[nH]1 [CBK283204] | 98.7% |
| O=c1[nH]c(CN2CCCCCCC2)nc2ccccc12 [CBK283205] | 117% |
| CC1CCc2n[nH]c(C(=O)N3CCC(O)C(C)C3)c2C1 (centres unmarked) [CBK283207] | 107% |
| O=C(NCCCc1ccccn1)c1cc2ccc(F)cc2[nH]1 [CBK283211] | 84.4% |
| CC1CCc2n[nH]c(C(=O)NCCCC3CCOC3)c2C1 (centres unmarked) [CBK283212] | 102% |
| O=C(NCCCC1CCOC1)c1cc2ccc(F)cc2[nH]1 (centres unmarked) [CBK283213] | 110% |
| CCOC(=O)C(C)NC(=O)c1cc2ccc(F)cc2[nH]1 (centres unmarked) [CBK283214] | 107% |
| C1=CCC(CN(CCCn2ccnc2)Cc2cccnc2)CC1 (centres unmarked) [CBK283216] | 88.6% |
| C=Cn1ncc(CN(CCCn2ccnc2)CC2CC=CCC2)c1C (centres unmarked) [CBK283219] | 96.8% |
| CC(C)C1c2cccn2CCN1C(=O)c1cc(-c2ccccn2)n[nH]1 (centres unmarked) [CBK283223] | 81.9% |
| CCC1c2ccc(C)n2CCN1C(=O)c1cc(-c2ccccn2)n[nH]1 (centres unmarked) [CBK283225] | 86.4% |
| C[C@@H](Cn1c(C(F)(F)F)cc2cccnc21)NC(=O)C1CCC1 [CBK283230] | 109% |
| Cc1ccc(CN(CCCN2CCOCC2)Cc2ccoc2)o1 [CBK283234] | 81% |
| Cc1ccc(CN(CCN(C)C)Cc2c(C)nn(C(C)C)c2C)o1 [CBK283235] | 100% |
| CC(NC(=O)CSCc1ccco1)c1ccccc1 (centres unmarked) [CBK283237] | 100% |
| CC(Cc1cccs1)NC(=O)CSCc1ccco1 (centres unmarked) [CBK283238] | 84.8% |
| Cc1ccc2c(CC(=O)N(C)CCc3cn[nH]c3)coc2c1 [CBK283239] | 90.8% |
| Cc1ccc2c(CC(=O)NCCn3cncn3)coc2c1 [CBK283240] | 93.8% |
| COc1ccc(C2(CN3CCC(NC(C)=O)CC3)CCCC2)cc1 [CBK283241] | 85.4% |
| COc1cccc(C2(O)CCCC3CN(C(C)=O)CC32)c1 (centres unmarked) [CBK283242] | 80.8% |
| Cc1cc(C)n(C(C)CNC(=O)c2cc(C3CC3)on2)n1 (centres unmarked) [CBK283243] | 103% |
| CC(Cc1cccs1)NC(=O)c1cc(C2CC2)on1 (centres unmarked) [CBK283244] | 107% |

| Structure (SMILES) | viability at 28.5 h, 10 µM |
| --- | --- |
| C[S+]([O-])CCNC(=O)c1cnn(-c2ccc(F)cc2)c1 (centres unmarked) [CBK283245] | 89.1% |
| Cc1c(C(=O)NCCCCn2ccnc2)[nH]c2ccccc12 [CBK283246] | 94.3% |
| CCc1[nH]c2ccc(C(=O)NC3CCCOC3)cc2c1C (centres unmarked) [CBK283247] | 95.9% |
| Cc1ccc(CN(CCCn2ccnc2)Cc2ccsc2)o1 [CBK283253] | 96.4% |
| CCCN1CCC(CNC(=O)c2cc3c(OC)cccc3n2C)CC1 [CBK283255] | 90.1% |
| CCn1cc(CCC(=O)NC2CCCOC2)c2ccccc21 (centres unmarked) [CBK283256] | 88.7% |
| CCn1c(C)cc2cc(NC(=O)c3cnc(C)nc3C)ccc21 [CBK283260] | 104% |
| COc1ccccc1CC(C)NC(=O)c1ccc2nc(C)[nH]c2c1 (centres unmarked) [CBK283261] | 86.1% |
| Cc1c(CN(Cc2ccccc2)CC2CCCO2)cnn1C (centres unmarked) [CBK283263] | 94.3% |
| Cc1nn(C)cc1CN(Cc1ccccc1)CC1CCCO1 (centres unmarked) [CBK283264] | 94.4% |
| CCn1cc(CN(Cc2ccccc2)CC2CCCO2)c(C)n1 (centres unmarked) [CBK283265] | 93.7% |
| CCc1nc2ccc(NC(=O)CCCc3ccncc3)cc2[nH]1 [CBK283268] | 111% |
| Cc1c(C(=O)N(C)CCc2ccncc2)[nH]c2ccccc12 [CBK283271] | 104% |
| Cc1ncc(C(=O)NC2(c3cccc(F)c3)CCCC2)c(C)n1 [CBK283273] | 89.4% |
| O=C(NCCN1CCC(O)(c2cccc(F)c2)CC1)C1CCCCC1 [CBK283281] | 96.2% |
| COc1cccc2c1cc(C(=O)NCc1cc(C3CC3)[nH]n1)n2C [CBK283282] | 80.4% |
| COc1cccc2c1cc(C(=O)NCCCC1CCOC1)n2C (centres unmarked) [CBK283284] | 93.4% |
| O=C(NCCN1CCC(O)(c2cccc(F)c2)CC1)C1CCCC1 [CBK283285] | 110% |
| C=CCNC(=O)CCn1c(C(C)C)cc2cccnc21 [CBK283289] | 105% |
| C=Cn1ncc(CN(Cc2ccc(C)o2)CC2CCCO2)c1C (centres unmarked) [CBK283292] | 101% |
| O=C(NCCCc1ccccn1)c1cc(C2CCCCC2)no1 [CBK283296] | 89.4% |
| Cc1nc2ccc(C(=O)NCCCN3CC(C)CC(C)C3)cc2[nH]1 (centres unmarked) [CBK283298] | 85.4% |
| C=Cn1ncc(CN2CCC3(O)CCCCC3C2)c1C (centres unmarked) [CBK283302] | 94.5% |

| Structure (SMILES) | viability at 28.5 h, 10 µM |
| --- | --- |
| CC(c1ccco1)N(C)Cc1c[nH]nc1-c1ccc(O)cc1 (centres unmarked) [CBK283303] | 89% |
| C[S+]([O-])CCNC(=O)c1cc2c(Cl)cccc2[nH]1 (centres unmarked) [CBK283304] | 83.9% |
| Cc1cc(C(=O)NCC[S+](C)[O-])c(-n2cccc2)s1 (centres unmarked) [CBK283305] | 96.7% |
| CCn1cncc1CN1CCN(CC2(c3ccc(C)cc3)CC2)CC1 [CBK283307] | 105% |
| CC(Cc1ccccn1)N(C)C(=O)c1cnn(-c2ccc(F)cc2)c1 (centres unmarked) [CBK283316] | 99.6% |
| OC1CCN(Cc2c(-c3cccs3)[nH]c3ncccc23)CC1 [CBK283318] | 79.9% |
| O[C@@H]1CN(Cc2ccc(F)c(F)c2)CC[C@H]1NC1CC1 [CBK283319] | 94% |
| Cc1ccc(C2(O)CCN(CCNC(=O)C3CCCCC3)CC2)cc1 [CBK283323] | 97.4% |
| CN(Cc1cccn1C)C(=O)c1cc(-c2cnn(C)c2)[nH]n1 [CBK283325] | 103% |
| C=CCn1c2cc(C)oc2c2cnn(CC(=O)N(C)C)c(=O)c21 [CBK283326] | 101% |
| OCc1c(-c2ccc(F)cc2)[nH]c2ncccc12 [CBK283328] | 86.5% |
| Cc1csc2c(C3CCCN(C(=O)c4cccnc4)C3)nc(C)n12 (centres unmarked) [CBK283329] | 93.4% |
| Cn1c(=O)n(CC(=O)NC2(C)C3CCC(C3)C2(C)C)c2cccnc21 (centres unmarked) [CBK283330] | 84.9% |
| O=C1Nc2c(cnn2-c2ccccc2Cl)C2=NCCCN12 [CBK283331] | 100% |
| O=C1NC2(CCc3ccccc31)CCN(C(=O)c1cccnc1)C2 (centres unmarked) [CBK283335] | 96.5% |
| COc1ccc(CN2CCC3(CCc4ccccc4C(=O)N3)C2)cc1 (centres unmarked) [CBK283339] | 97.6% |
| O=C(C1CCCC1)N1CC(n2nc(-c3cccs3)ccc2=O)C1 [CBK283345] | 86.8% |
| O=C(c1cccs1)N1CC(n2nc(-c3cccs3)ccc2=O)C1 [CBK283347] | 97.3% |
| O=C1CCC[C@]2(CN(Cc3ccccc3)C[C@H]2c2ccncc2)N1 [CBK283348] | 84.5% |
| Cc1cccc([C@@H]2CN(Cc3ccccc3)C[C@]23CCCC(=O)N3)n1 [CBK283350] | 107% |
| O=C(C1C2CCCCC21)N1CCC(c2nnc3n2CCCCC3)CC1 (centres unmarked) [CBK283351] | 95.2% |
| O=C1NC2(CCc3ccccc31)CCN(C(=O)CCn1cccn1)C2 (centres unmarked) [CBK283352] | 91.2% |
| O=C1CC2(CCN(S(=O)(=O)Cc3ccc(Cl)cc3)CC2)CN1 [CBK283355] | 102% |

| Structure (SMILES) | viability at 28.5 h, 10 µM |
| --- | --- |
| COCC(=O)N1C[C@@H](c2ccc(F)c(F)c2)[C@@]2(CCCC(=O)N2)C1 [CBK283358] | 103% |
| O=C1CC2(CCN(Cc3ccc(C(F)(F)F)cc3)CC2)CN1 [CBK283359] | 86.8% |
| O=C(NC[C@H]1CC[C@H](c2nnc(-c3ccsc3)o2)CC1)C1CC1 [CBK283361] | 85.5% |
| O=C(NC[C@H]1CC[C@H](c2nnc(-c3ccsc3)o2)CC1)C1CCC1 [CBK283363] | 87.1% |
| Cc1ncc(CNC(=O)C2CC2)c(-c2cn(C)c3ccccc23)n1 [CBK283366] | 103% |
| O=C1CCOC[C@]2(CN(Cc3ccccc3)C[C@H]2c2ccccc2)N1 [CBK283367] | 92.6% |
| CC(=O)N1C[C@@H](c2cccc(C)c2)[C@@H]2CN(Cc3cccnc3)CC[C@@H]21 [CBK283368] | 89.7% |
| CC(=O)N1C[C@@H](c2cccc(C)c2)[C@@H]2CN(Cc3ccncc3)CC[C@@H]21 [CBK283370] | 96.1% |
| COc1cccc([C@H]2CN(C(C)=O)[C@@H]3CCN(C4CCCC4)C[C@H]23)c1 [CBK283375] | 89.7% |
| O=C(C1CC1)N1CCC(c2nnc(-c3ccsc3)o2)CC1 [CBK283376] | 91.6% |
| O=C(C1CCCC1)N1CCC(c2nnc(-c3ccsc3)o2)CC1 [CBK283379] | 86.5% |
| O=C(C1CCCCC1)N1CCC(c2nnc(-c3ccsc3)o2)CC1 [CBK283380] | 104% |
| O=C(C1CC1)N1C[C@@H](c2ccsc2)[C@@H]2CN(C3CCCC3)CC[C@@H]21 [CBK283382] | 107% |
| Cc1c(C(=O)N2CCC(c3cc4ncccc4[nH]3)CC2)cnn1C [CBK283384] | 88.1% |
| O=C(c1ccccc1)N1CCC(c2cc3ncccc3[nH]2)CC1 [CBK283385] | 89.4% |
| COc1ccc(CC(=O)N2CCC(c3cc4ncccc4[nH]3)CC2)cc1 [CBK283386] | 84.3% |
| CCCNC(=O)c1cc(C2CCCN(Cc3ccc(F)cc3)C2)no1 (centres unmarked) [CBK283387] | 94% |
| CCCNC(=O)c1cc(C2CCCN(Cc3ccccc3)C2)no1 (centres unmarked) [CBK283388] | 98% |
| CC(C)(C)NC(=O)NC1CCC2(CC1)CC(=O)c1ccccc1O2 (centres unmarked) [CBK283390] | 109% |
| CC(C)n1cc(C(=O)N2CCC(c3cc4ncccc4[nH]3)CC2)cn1 [CBK283392] | 95.6% |
| O=C(Cc1cccs1)N1CCC(c2cc3ncccc3[nH]2)CC1 [CBK283393] | 86.5% |
| O=C(c1cscn1)N1CCCCC1c1nc2ccccc2[nH]1 (centres unmarked) [CBK283394] | 91% |
| COc1cccc(C(=O)N2CCC(c3cc4ncccc4[nH]3)CC2)c1 [CBK283398] | 117% |
